Assay results from ChEMBL document CHEMBL1134708, “Synthesis of analogues of the O-beta-D-ribofuranosyl nucleoside moiety of liposidomycins. Part 1: contribution of the amino group and the uracil moiety upon the inhibition of MraY” (Bioorg Med Chem Lett, 2001).

Legend:
[1] = molecular target: T1, Phospho-N-acetylmuramoyl-pentapeptide-transferase (Escherichia coli K-12, UniProt P0A6W3); test: Inhibition of Escherichia coli Translocase (mraY)
T1 sequence (P0A6W3 whole entry): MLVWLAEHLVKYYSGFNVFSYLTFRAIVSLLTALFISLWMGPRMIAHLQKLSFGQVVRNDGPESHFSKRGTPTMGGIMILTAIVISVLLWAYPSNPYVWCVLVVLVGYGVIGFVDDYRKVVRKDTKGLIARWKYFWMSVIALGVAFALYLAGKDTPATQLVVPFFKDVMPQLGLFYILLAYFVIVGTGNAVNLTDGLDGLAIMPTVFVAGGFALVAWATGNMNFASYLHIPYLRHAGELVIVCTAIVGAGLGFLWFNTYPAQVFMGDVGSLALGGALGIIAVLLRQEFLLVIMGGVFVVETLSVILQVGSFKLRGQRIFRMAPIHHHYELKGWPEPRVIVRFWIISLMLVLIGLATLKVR

[2] = molecular target: T1, Phospho-N-acetylmuramoyl-pentapeptide-transferase; test: Inhibition of Translocase (mraY) at >1000 uM (No activity)

Compound	IC50 [1] [µM]	IC50 [2]
O=c1ccn([C@@H]2O[C@H](CO[C@@H]3O[C@H](CO)C(O)[C@H]3O)C(O)[C@H]2O)c(=O)[nH]1 (single isomer, unassigned)	> 1000	–
N=C(N)NC[C@H]1O[C@@H](OC[C@H]2O[C@@H](n3ccc(=O)[nH]c3=O)[C@H](O)[C@@H]2O)[C@H](O)[C@@H]1O	25	–
O=CNC[C@H]1O[C@@H](OC[C@H]2O[C@@H](n3ccc(=O)[nH]c3=O)[C@H](O)C2O)[C@H](O)C1O (single isomer, unassigned)	> 1000	–
C[N+](C)(C)C[C@H]1O[C@@H](OC[C@H]2O[C@@H](n3ccc(=O)[nH]c3=O)[C@H](O)C2O)[C@H](O)C1O (single isomer, unassigned)	> 1000	–
CCNC[C@H]1O[C@@H](OC[C@H]2O[C@@H](n3ccc(=O)[nH]c3=O)[C@H](O)C2O)[C@H](O)C1O (single isomer, unassigned)	150	–
Cn1c(=O)ccn([C@@H]2O[C@H](CO[C@@H]3O[C@H](CN)C(O)[C@H]3O)C(O)[C@H]2O)c1=O (single isomer, unassigned)	–	Not Active
N=CNC[C@H]1O[C@@H](OC[C@H]2O[C@@H](n3ccc(=O)[nH]c3=O)[C@H](O)C2O)[C@H](O)C1O (single isomer, unassigned)	30	–
CNC[C@H]1O[C@@H](OC[C@H]2O[C@@H](n3ccc(=O)[nH]c3=O)[C@H](O)C2O)[C@H](O)C1O (single isomer, unassigned)	45	–
CC(C)NC[C@H]1O[C@@H](OC[C@H]2O[C@@H](n3ccc(=O)[nH]c3=O)[C@H](O)C2O)[C@H](O)C1O (single isomer, unassigned)	180	–
CC(=O)NC[C@H]1O[C@@H](OC[C@H]2O[C@@H](n3ccc(=O)[nH]c3=O)[C@H](O)[C@@H]2O)[C@H](O)[C@@H]1O	> 1000	–
CN(C)C[C@H]1O[C@@H](OC[C@H]2O[C@@H](n3ccc(=O)[nH]c3=O)[C@H](O)C2O)[C@H](O)C1O (single isomer, unassigned)	> 1000	–
NC[C@H]1O[C@@H](OC[C@H]2O[C@@H](N3CCC(=O)NC3=O)[C@H](O)C2O)[C@H](O)C1O (single isomer, unassigned)	–	Not Active
NC[C@H]1O[C@@H](OC(CO)[C@H]2O[C@@H](n3ccc(=O)[nH]c3=O)[C@H](O)[C@@H]2O)[C@H](O)[C@@H]1O (stereo partly specified)	5	–
CCCNC[C@H]1O[C@@H](OC[C@H]2O[C@@H](n3ccc(=O)[nH]c3=O)[C@H](O)C2O)[C@H](O)C1O (single isomer, unassigned)	140	–
CCCCCCNC[C@H]1O[C@@H](OC[C@H]2O[C@@H](n3ccc(=O)[nH]c3=O)[C@H](O)C2O)[C@H](O)C1O (single isomer, unassigned)	130	–
NC[C@H]1O[C@@H](OC[C@H]2O[C@@H](n3ccc(=O)[nH]c3=O)[C@H](O)C2O)[C@H](O)C1O (single isomer, unassigned)	50	–
